The text below walks through data of PubChem BioAssay AID463136 (University of Pittsburgh Molecular Library Screening Center, 2010).

The inhibition is the drop in the measured response relative to a control, in per cent. The term IC50 denotes the concentration that gives 50% inhibition.

Experiment [1] is described as follows: dynein cargo transport inhibitors, potency, dose response, imaging, high-content imaging (AID 463136).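 Also: mouse mammary adenocarcinoma 3617.4 cells expressing GFP-tagged rat glucocorticoid receptor.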 The following applies: HCS imaging, dynein-mediated cargo transport inhibition; inhibition at max concentration; at 50 µM; stronger effect = higher value.
The test system of experiment [2] is HCS imaging, dynein-mediated cargo transport inhibition. The description is as above.

Records with an inconclusive call do not appear. Activity calls are given as the source filed them. No rule for the calls is given here.

For `COc1ccc(-c2nnc(Sc3nc4ccccc4o3)c3ccccc23)cc1`, in experiment [1], the inhibition was 88.8%. Besides, in experiment [2], the IC50 is 27.2 µM. For `O=[N+]([O-])c1ccc(N/N=C/c2ccc[nH]2)cc1`, in that order: 148% and 18 µM.

For `COC1=C(C)C(O)=C(C(=O)/C=C/c2ccccc2)C(=O)C1(C)C`, the inhibition in experiment [1] was determined as 88.2%. Besides, in experiment [2], the IC50 is 12.2 µM. For `CCN(CC)c1ccc2cc(-c3nc4ccccc4[nH]3)c(=O)oc2c1`, in that order: 98.9% and 21.9 µM. The corresponding values for `O=C1/C(=C/c2ccc(N3CCOCC3)o2)SC(=Nc2ccccc2)N1CCc1c[nH]c2ccccc12` are 95.6% and 1.2 µM.

In the case of `O=C(CCl)N(C/C=C/c1ccccc1)c1ccc2c(c1)OCCO2`, the inhibition in experiment [1] was determined as 78.1%. Also, in experiment [2], the IC50 was 27.1 µM.

On to `CC1(C)C(=O)Nc2ccccc2N1C(=O)Cn1ncc(Cl)c(Cl)c1=O`, for which, in experiment [1], the inhibition turned out to be 71.9%. The IC50 in experiment [2] is 12.3 µM.

Take `O=C(CCl)c1ccc2c(c1)CCN2C(=O)C1CCCCC1`: the inhibition in experiment [1] turned out to be 78.2%. In experiment [2], the IC50 was 27 µM. As for `O=c1c(Cl)c(Cl)cnn1Cc1ccccc1Cl`, the inhibition in experiment [1] was 51.4%. Also, the IC50 in experiment [2] is 23.8 µM.

For the molecule `CCOC(=O)C1=C(Cc2ccc(OC)cc2)C(=O)c2ccccc2C1=O`, in experiment [1], the inhibition turned out to be 21.6%. Moreover, the IC50 in experiment [2] is > 50 µM (inactive).

`N#Cc1cccc(NC(=O)CSc2ccc3c4c(cccc24)C(=O)c2ccccc2-3)c1`: in experiment [1], the inhibition is 104%. Also, the IC50 in experiment [2] was 33.3 µM. The corresponding values for `C=CS(=O)c1sc(Cl)c(N2CCOCC2)c1[N+](=O)[O-]` (centres undefined) are 57.1% and 45.6 µM. For `O=C(CCl)N(CCCNC(=O)C(F)(F)F)c1ccc([N+](=O)[O-])cc1`, in that order: 83.1% and 10.8 µM. On to `CCN1C(=O)C(=C/C=C/c2ccco2)C(=O)N(CC)C1=S`, for which the inhibition in experiment [1] stood at 75.1%. In addition, the IC50 in experiment [2] was 41.3 µM.

As for `CC(=O)OCCCNc1cc(SCc2ccco2)c2nonc2c1[N+](=O)[O-]`, the inhibition in experiment [1] stood at 67.7%. Besides, the IC50 in experiment [2] was 35.1 µM. The corresponding values for `CCCNC(=O)c1nnsc1S(=O)(=O)c1ccc(Cl)cc1` are 69.3% and 8.66 µM.

On to `COCCCn1c(O)c(/C=C2\N=C(C#N)C(=Nc3ccc(C)cc3)O2)sc1=S`, for which the inhibition in experiment [1] turned out to be 11%. Moreover, the IC50 in experiment [2] was > 50 µM (inactive). For `CC1(C)C[C@H]2C=C(C=O)[C@]3(C=O)C[C@]3(C)[C@H]2C1`, in that order: 78.6% and 12.9 µM.

For the molecule `CC(=O)Nc1c([N+](=O)[O-])cc(C)c(Cl)c1[N+](=O)[O-]`, the inhibition in experiment [1] worked out at 88.8%. The IC50 in experiment [2] is 11.2 µM. On to `Cc1cc(C)cc(N=Cc2[nH]c3ccc(Br)c(Cl)c3c2O)c1`, for which the inhibition in experiment [1] came out at 122%. Also, in experiment [2], the IC50 was 27.6 µM. On to `Cc1ccc(C(=O)NC(C#N)=C(Cl)Cl)cc1`, for which, in experiment [1], the inhibition turned out to be 82.3%. In addition, the IC50 in experiment [2] was 6.71 µM. On to `Cc1cc(C)cc(N2C(=O)NC(=O)/C(=C\C=C\c3ccco3)C2=O)c1`, for which, in experiment [1], the inhibition is 88%. For the same molecule, the IC50 in experiment [2] was 32.3 µM. Regarding `Cc1nc([N+](=O)[O-])c(Br)n1Cc1ccccc1`, in experiment [1], the inhibition is 84.8%. In addition, in experiment [2], the IC50 is 6.35 µM. The corresponding values for `C=CCSc1nnc(C)c(/C=C/Nc2ccc(Cl)cc2)n1` are 125% and 27.7 µM. Consider `CC(=O)OCCNc1cc(SCc2ccco2)c2nonc2c1[N+](=O)[O-]`, for which the inhibition in experiment [1] stood at 59.9%. In experiment [2], the IC50 is 42.1 µM. With `CCOC(=O)C(=Cc1c[nH]c2ccc(S(=O)(=O)N(C)C)cc12)C(=O)OCC`, the inhibition in experiment [1] was found to be 92.8%. The IC50 in experiment [2] was 29.5 µM. For the molecule `Cc1cccc2cc3c(N)c(C(=O)N4CCc5ccccc54)sc3nc12`, the IC50 in experiment [2] was 5.15 µM. In the case of `O=[N+]([O-])c1ccc(C2=NN(c3ccccc3)C(c3ccco3)C2)cc1` (centres undefined), the IC50 in experiment [2] was 32.3 µM.
